This is an account of results in patent publication US8846904B2, “Water-soluble porphyrin and process for production thereof” (University of Miyazaki, priority 2009, dated 2014).

Where two headings read alike, the source gives them in different places.

The nature of data set [1]: Solubility in water (Cw), saturated aqueous solution, absorption spectrum. Format: physicochemical. The protocol:
(§1) 10 mg of the obtained PTPP derivative was dispersed in 0.50 mL of water and allowed to stand for 3 days to prepare a saturated aqueous solution. The supernatant of the aqueous solution was collected and diluted with methanol. Thereafter, the absorption spectrum was measured and the solubility in water (Cw) was calculated using the molar absorption coefficient of the PTPP derivative in methanol. In a similar manner to the above, the solubility in dioxane (Co) was also calculated.

Data set [2] is described as follows: Solubility in dioxane (Co), absorption spectrum. The class given is physicochemical. The protocol:
as §1

Data set [3] is described as follows: Partition from aqueous phase to water-immiscible organic solvent (octanol or chloroform). Format: physicochemical. The note with it: octanol or chloroform added to the aqueous solution and stirred; derivative promptly moved to the organic phase. The method, then: A water-immiscible organic solvent, such as octanol or chloroform, was added to the aqueous solution of the PTPP derivative (Cw=17.3 mM, Co=0.245 mM) and stirred. This caused the PTPP derivative dissolved in the aqueous phase to promptly move to the organic phase.

For data set [4] the following is noted: cited from earlier work.
In data set [5] the test system is yeast (Saccharomyces cerevisiae). As to the kind of experiment: Biocompatibility: concentration of PTPP derivative adsorbed on yeast cells (Cad), microscope absorption spectrophotometry. Format: cell-based. The conditions noted are these: 10 μM of PTPP derivative added to a yeast solution (1.0×10^4 cell/mL); Nd = below the detection limit. The protocol: Subsequently, the biocompatibility of this PTPP derivative was assessed in the following manner. An aqueous solution of this PTPP derivative (0.5 mL, 50 μm) was added to the cell suspension (1.0 mL; ca. 2.5×10^4 cell/mL) of yeast, and then an aqueous solution of agar (1 wt %; 1.0 mL) was added. A portion of the prepared aqueous solution containing the PTPP derivative (10 μm), yeast (Saccharomyces cerevisiae; ca. 1.0×10^4 cell/mL) and agar (0.4 wt %) was placed on a space (1 cm×1 cm) surrounded by a silicone spacer (thickness 50 μm) put on a glass slide, covered with a cover glass. The glass slide was set on the stage of an optical microscope. Thereafter, appropriate bacterial cells were positioned in the center of the field of view, and the Q-band absorption spectrum of the PTPP derivative near 560 nm was measured. Then, the concentration (Cad) of the PTPP derivative adsorbed on the bacterial cells was calculated from absorption spectrophotometry based on the Lambert-Beer law.

Data set [6] in a line: Quantum yield of 1O2 production, near infrared emission at 1,270 nm. The class given is physicochemical. The note with it: aqueous PTPP derivative solution (20 μM), laser 558 nm, relative to methylene blue. The source says:
When the photosensitizer “Photofrin” that has been practically used in PDT treatment is used, the quantum yield of ^1O2 is 0.53 (J. Photochem. Photobiol. B, 92 (2008), 59-65). In contrast, when the PTPP derivatives prepared in Examples 2, 3, and 4 were used, the quantum yields of ^1O2 were 0.62, 0.69, and 0.73, respectively. This explains that the water-soluble porphyrins of the present invention have high photoexcitation efficiency and can thus be suitably used for PDT. The quantum yields of the ^1O2 production were determined by directly measuring the near infrared emission near 1,270 nm obtained by deactivation of the produced ^1O2.
Specifically, an aqueous PTPP derivative solution (20 μM) was irradiated with a laser beam of 558 nm to excite the PTPP derivative, and the emission spectrum of the produced ^1O2 was measured. The quantum yield of the ^1O2 production was calculated by comparing the emission intensity at 1,270 nm obtained with respect to the aqueous PTPP derivative solution with the emission intensity at 1,270 nm obtained in the same manner as above with respect to methylene blue (quantum yield: 0.52).

The mark [7] stands for this setting: saturated aqueous solution, allowed to stand for 3 days.

Turning to `COCCOCCOCCO[P-]123(OCCOCCOCCOC)n4c5ccc4C(c4ccccc4)=C4C=CC(=[N+]41)C(c1ccccc1)=c1ccc(n12)=C(c1ccccc1)C1=[N+]3C(=C5c2ccccc2)C=C1.Cl` [Example 1], in data set [1] (setting [7]), the “Solubility Cw (solubility in water)” value stood at 17300 µM. The “Solubility Co (solubility in dioxane)” value in data set [2] (solvent dioxane) turned out to be 245 µM. Moreover, the “partition to the organic phase” value in data set [3] is given as “high partition coefficient to the organic phase”.
For `CN(C)c1ccc2nc3ccc(=[N+](C)C)cc-3sc2c1` [methylene blue], the “quantum yield of 1O2” value in data set [4] (methylene blue reference standard value) was 0.52.
Take `CCCCCCOCCOCCO[P-]123(OCCOCCOCCCCCC)n4c5ccc4C(c4ccccc4)=C4C=CC(=[N+]41)C(c1ccccc1)=c1ccc(n12)=C(c1ccccc1)C1=[N+]3C(=C5c2ccccc2)C=C1.Cl` [Example 5]: the “Solubility Cw (solubility in water)” value in data set [1] (setting [7]) was determined as 2070 µM. The “Solubility Co (solubility in dioxane)” value in data set [2] (solvent dioxane) is 244 µM. In addition, the “Cad (concentration of PTPP derivative adsorbed on bacterial cell)” value (from here on “Cad”) in data set [5] is given as 146 mM.
As for `CCCCCCOCCO[P-]123(OCCOCCCCCC)n4c5ccc4C(c4ccccc4)=C4C=CC(=[N+]41)C(c1ccccc1)=c1ccc(n12)=C(c1ccccc1)C1=[N+]3C(=C5c2ccccc2)C=C1.Cl` [Example 6], the “Solubility Cw (solubility in water)” value in data set [1] was 1110 µM. For the same compound, the “Solubility Co (solubility in dioxane)” value in data set [2] came out at 242 µM. The “Cad” value in data set [5] is 142 mM.
As to `CCCCOCCOCCO[P-]123(OCCOCCOCCCC)n4c5ccc4C(c4ccccc4)=C4C=CC(=[N+]41)C(c1ccccc1)=c1ccc(n12)=C(c1ccccc1)C1=[N+]3C(=C5c2ccccc2)C=C1.Cl` [Example 4], the “Solubility Cw (solubility in water)” value in data set [1] (setting [7]) came out at 5380 µM. Further, the “Solubility Co (solubility in dioxane)” value in data set [2] (solvent dioxane) was 293 µM. For the same compound, the “Cad” value in data set [5] stood at 74.6 mM. The “quantum yield of 1O2” value in data set [6] worked out at 0.73.
Consider Photofrin, for which the “quantum yield of 1O2” value in data set [4] (Photofrin, from J. Photochem. Photobiol. B, 92 (2008), 59-65) is 0.53.
For `COCCOCCO[P-]123(OCCOCCOC)n4c5ccc4C(c4ccccc4)=C4C=CC(=[N+]41)C(c1ccccc1)=c1ccc(n12)=C(c1ccccc1)C1=[N+]3C(=C5c2ccccc2)C=C1.Cl` [Example 2], the “Solubility Cw (solubility in water)” value in data set [1] (setting [7]) was found to be 13900 µM. For the same compound, the “Solubility Co (solubility in dioxane)” value in data set [2] (solvent dioxane) turned out to be 140 µM. The “Cad” value in data set [5] worked out at 17.8 mM. Besides, the “quantum yield of 1O2” value in data set [6] was found to be 0.62.
Turning to `CCCCCCCCCCCCCCCCCCOCCOCCOCCOCCO[P-]123(OCCOCCOCCOCCOCCCCCCCCCCCCCCCCCC)n4c5ccc4C(c4ccccc4)=C4C=CC(=[N+]41)C(c1ccccc1)=c1ccc(n12)=C(c1ccccc1)C1=[N+]3C(=C5c2ccccc2)C=C1.Cl` [Example 8], the “Solubility Cw (solubility in water)” value in data set [1] (setting [7]) was 7960 µM. The “Solubility Co (solubility in dioxane)” value in data set [2] (solvent dioxane) is given as “≧25 mM”.
For `CCOCCOCCO[P-]123(OCCOCCOCC)n4c5ccc4C(c4ccccc4)=C4C=CC(=[N+]41)C(c1ccccc1)=c1ccc(n12)=C(c1ccccc1)C1=[N+]3C(=C5c2ccccc2)C=C1.Cl` [Example 3], in data set [1] (setting [7]), the “Solubility Cw (solubility in water)” value was found to be 13000 µM. Also, in data set [2] (solvent dioxane), the “Solubility Co (solubility in dioxane)” value came out at 169 µM. Also, the “Cad” value in data set [5] is on record as 27.5 mM. Also, the “quantum yield of 1O2” value in data set [6] is on record as 0.69.
Consider `CCCCCCCCCCCCOCCOCCOCCOCCOCCOCCOCCOCCOCCO[P-]123(OCCOCCOCCOCCOCCOCCOCCOCCOCCOCCCCCCCCCCCC)n4c5ccc4C(c4ccccc4)=C4C=CC(=[N+]41)C(c1ccccc1)=c1ccc(n12)=C(c1ccccc1)C1=[N+]3C(=C5c2ccccc2)C=C1.Cl` [Example 7], for which, in data set [1] (setting [7]), the “Solubility Cw (solubility in water)” value turned out to be 14460 µM. Also, the “Solubility Co (solubility in dioxane)” value in data set [2] (solvent dioxane) is reported as “≧25 mM”.
